Source: patent US5320094A (The Johns Hopkins University, priority 1992, dated 1994)
Values joined by “and” are separate entries in the source; they are usually repeats but may differ in a detail not shown here. Equal values may be shown once. Read-outs that look alike come from different tables or passages of the source.

How the values were obtained:
diabetic subjects = conditions: intranasal bile-salt aerosol; cited from earlier work
[1] = test system: normal subjects and non-insulin dependent diabetic (NIDDM) subjects; experiment: Blood glucose response after inhalation of aerosolized insulin; type: in vivo, human; conditions: for Maximum Decrease in Glucose (% of Baseline): fasting
Source text: The timing of each aerosol actuation was controlled by a Rosenthal-French dosimeter and lasted for one second. […] The distance between the subject's mouth and the nebulizer reduced aerosol velocity and, thus, impaction of particles in the mouth. Inspiratory flow rate at the time of aerosol inhalation was regulated to less than 30 and, preferably about 17 liters/minute by rate limiting orifices of the type described above. During inhalation, patients inspired from residual volume to total lung capacity.
After the sixth actuation, aerosol was inhaled from the holding chamber through a mouthpiece. […] Each inhalation was proceeded by six actuations of the nebulizer.

[2] = test system: normal and non-insulin-dependent non-obese diabetic subjects; conditions: rectal suppository; cited from earlier work
[3] = for Peak Insulin Level: fasting
Source text: The timing of each aerosol actuation was controlled by a Rosenthal-French dosimeter and lasted for one second. […] Inspiratory flow rate at the time of aerosol inhalation was regulated to less than 30 and, preferably about 17 liters/minute by rate limiting orifices of the type described above. During inhalation, patients inspired from residual volume to total lung capacity.
After the sixth actuation, aerosol was inhaled from the holding chamber through a mouthpiece. […]
To accomplish this dosing regime, volunteers inhaled 5-13 times from the holding chamber. Each inhalation was preceded by six actuations of the nebulizer.
(§1) Subjects 3, 4 and 6 were medicated with Glyburide 10 mg/day, 15 mg/day, and 5 mg/day, respectively. Subject No. 5 was treated with Diabinese 750 mg/day. Subject No. 7 was medicated with Glyburide 20 mg/day and Subject No. 8 was unmedicated. […] Blood samples were assessed at the time of collection for glucose levels with a glucose meter (Accuchek). Determinations of plasma glucose levels were also obtained from photometric reaction with glucose hexokinase using an Hitachi 736 and 737 chemical analyzer (Boehringer Mannheim Diagnostics). The reference range for fasting adults using this technique and equipment is 3.92-6.44 SI units. […] The expected range of values for normals in the fasting state, as provided by Diagnostics Products Corp., is 18-210 SI units. An IV saline solution was running, 50% glucose was available in case the blood glucose level decreased rapidly, and a diabetologist was present during the study. […] Studies were performed in the Johns Hopkins Outpatient Clinical Research Center. All patients who participated in these experiments gave informed consent to a written description of the study, which was approved by the Institutional Review Board.
When averaging decreases in blood glucose levels the data were normalized in terms of percent change from baseline.

rabbits = conditions: micellar form, intrajejunal administration, reduction in blood glucose; cited from earlier work
[4] = test system: normal and NIDDM subjects; conditions: inhaled
Protocol: as §1

[5] = NIDDM subject 3, 0.21 U/kg BW inhaled
[6] = NIDDM subject 4, 0.23 U/kg BW inhaled
[7] = NIDDM subject 5, 0.21 U/kg BW inhaled
[8] = NIDDM subject 6, 0.20 U/kg BW inhaled
[9] = NIDDM subject 7, 0.20 U/kg BW inhaled
[10] = NIDDM subject 8, 0.20 U/kg BW inhaled
[11] = eight subjects (second dose for subjects 1 and 2), mean dose 0.21 U/kg BW inhaled
[12] = normal subject 1, first dose, 0.09 U/kg BW inhaled
[13] = normal subject 1, second dose, 0.19 U/kg BW inhaled
[14] = normal subject 2, first dose, 0.11 U/kg BW inhaled
[15] = normal subject 2, second dose, 0.21 U/kg BW inhaled

insulin: regular U-500 pork insulin (Eli Lilly) aerosolized by a jet nebulizer; background citations concern insulin given by other routes
Amount of insulin absorbed through the nasal mucosa, relative to dose delivered by intravenous injection (diabetic subjects): approximately 10%
Dose required to lower blood glucose, relative to subcutaneous dose (diabetic subjects): 2.5 times
Local effects after intranasal administration (diabetic subjects): subjects reported nasal irritation and nasal congestion
Time to 10% Decrease in Glucose [1, 5]: 30 min
Time to Lowest Glucose Level [1, 5]: 150 min
Maximum Decrease in Glucose (% of Baseline) [1, 5]: 43%
Glucose level decreased to, after insulin inhalation ([1]; NIDDM subject 3, 0.21 U/kg BW inhaled, baseline 10.58): 6.05 SI units
Time to 10% Decrease in Glucose [1, 6]: 30 min
Time to Lowest Glucose Level [1, 6]: 160 min
Maximum Decrease in Glucose (% of Baseline) [1, 6]: 71%
Glucose level decreased to, after insulin inhalation ([1]; NIDDM subject 4, 0.23 U/kg BW inhaled, baseline 16.58): 4.82 SI units
Time to 10% Decrease in Glucose [1, 7]: 40 min
Time to Lowest Glucose Level [1, 7]: 200 min
Maximum Decrease in Glucose (% of Baseline) [1, 7]: 53%
Glucose level decreased to, after insulin inhalation ([1]; NIDDM subject 5, 0.21 U/kg BW inhaled, baseline 12.12): 5.71 SI units
Time to 10% Decrease in Glucose [1, 8]: 42 min
Time to Lowest Glucose Level [1, 8]: 140 min
Maximum Decrease in Glucose (% of Baseline) [1, 8]: 54%
Glucose level decreased to, after insulin inhalation ([1]; NIDDM subject 6, 0.20 U/kg BW inhaled, baseline 9.27): 4.26 SI units
Time to 10% Decrease in Glucose [1, 9]: 20 min
Time to Lowest Glucose Level [1, 9]: 120 min
Maximum Decrease in Glucose (% of Baseline) [1, 9]: 61%
Glucose level decreased to, after insulin inhalation ([1]; NIDDM subject 7, 0.20 U/kg BW inhaled, baseline 13.94): 5.49 SI units
Time to 10% Decrease in Glucose [1, 10]: 60 min
Time to Lowest Glucose Level [1, 10]: 150 min
Maximum Decrease in Glucose (% of Baseline) [1, 10]: 49%
Glucose level decreased to, after insulin inhalation ([1]; NIDDM subject 8, 0.20 U/kg BW inhaled, baseline 13.30): 6.78 SI units
Mean maximum decrease in glucose from baseline ([1]; NIDDM subjects, 0.2 U/kg BW inhaled): 55±10%
Shift of blood glucose levels to the normal range ([1]; NIDDM subjects, approximately 0.2 U/kg BW aerosolized insulin, normal range 4.20-6.44 SI units): shifted blood glucose levels of five of the six NIDDM subjects to within the normal range
Maximum Decrease in Glucose (% of Baseline), mean ([1]; eight subjects (second dose for subjects 1 and 2), 0.2 U/kg BW inhaled): 52±10% and 52%
Time to 10% Decrease in Glucose, mean [1, 11]: 36 ± 15 min and 36 min
Time to Lowest Glucose Level (time to maximum decrease in blood glucose), mean [1, 11]: 138 ± 46 min and 138 min
Glucose level decreased to, after insulin inhalation ([1]; normal subject 1, 0.09 U/kg BW inhaled, baseline 4.70): 4.09 SI units
Glucose level decreased to, after insulin inhalation ([1]; normal subject 1, 0.19 U/kg BW inhaled, baseline 4.70): 3.08 SI units
Time to 10% Decrease in Glucose [1, 12]: 35 min
Time to Lowest Glucose Level [1, 12]: 80 min
Maximum Decrease in Glucose (% of Baseline) [1, 12]: 13%
Time to 10% Decrease in Glucose [1, 13]: 50 min
Time to Lowest Glucose Level [1, 13]: 140 min
Maximum Decrease in Glucose (% of Baseline) [1, 13]: 34%
Glucose level decreased to, after insulin inhalation ([1]; normal subject 2, 0.11 U/kg BW inhaled, baseline 3.95): 3.14 SI units
Glucose level decreased to, after insulin inhalation ([1]; normal subject 2, 0.21 U/kg BW inhaled, baseline 4.34): 2.24 SI units
Time to 10% Decrease in Glucose [1, 14]: 5 min
Time to Lowest Glucose Level [1, 14]: 40 min
Maximum Decrease in Glucose (% of Baseline) [1, 14]: 20%
Time to 10% Decrease in Glucose [1, 15]: 15 min
Time to Lowest Glucose Level [1, 15]: 40 min
Maximum Decrease in Glucose (% of Baseline) [1, 15]: 48%
Mean maximum decrease in glucose from baseline ([1]; normal subjects, 0.2 U/kg BW inhaled): 41±10%
Effect on blood glucose levels ([1]; normal subjects, approximately 0.2 U/kg BW aerosolized insulin to the mouth): effectively lowered blood glucose levels in the normal subjects
Complaints after rectal administration [2]: some subjects complained of abdominal discomfort or a feeling of rectal urgency
Dose necessary to lower blood glucose significantly, relative to subcutaneous dose [2]: 10 times
Time to Peak Insulin Level [3, 5]: 5 min
log Peak Insulin Level [3, 5]: 2.7694
Peak Insulin Level [3, 5]: 588 SI units
Time to Peak Insulin Level [3, 6]: 15 min
log Peak Insulin Level [3, 6]: 2.2967
Peak Insulin Level [3, 6]: 198 SI units
Time to Peak Insulin Level [3, 7]: 40 min
log Peak Insulin Level [3, 7]: 2.3096
Peak Insulin Level [3, 7]: 204 SI units
Time to Peak Insulin Level [3, 8]: 52 min
log Peak Insulin Level [3, 8]: 2.3909
Peak Insulin Level [3, 8]: 246 SI units
Time to Peak Insulin Level [3, 9]: 25 min
log Peak Insulin Level [3, 9]: 2.0569
Peak Insulin Level [3, 9]: 114 SI units
Time to Peak Insulin Level [3, 10]: 100 min
log Peak Insulin Level [3, 10]: 2.7513
Peak Insulin Level [3, 10]: 564 SI units
Return of blood insulin levels to baseline ([3]; approximately 0.2 U/kg BW inhaled, up to 200 minutes): did not return to baseline by the time the experiment was concluded in seven of the study subjects
Peak Insulin Level, geometric mean [3, 11]: 254 SI units
Time to Peak Insulin Level, mean [3, 11]: 35 min and 35 ± 31 min
log Peak Insulin Level, mean [3, 11]: 2.4055
Insulin absorption across the lung mucosa compared with subcutaneous administration ([3]; inhaled aerosol): more rapid than following subcutaneous administration
Time to Peak Insulin Level [3, 12]: 10 min
log Peak Insulin Level [3, 12]: 2.1399
Peak Insulin Level [3, 12]: 138 SI units
Time to Peak Insulin Level [3, 13]: 35 min
log Peak Insulin Level [3, 13]: 2.3345
Peak Insulin Level [3, 13]: 216 SI units
Time to Peak Insulin Level [3, 14]: 5 min
log Peak Insulin Level [3, 14]: 2.4771
Peak Insulin Level [3, 14]: 300 SI units
Time to Peak Insulin Level [3, 15]: 5 min
log Peak Insulin Level [3, 15]: 2.3345
Peak Insulin Level [3, 15]: 216 SI units
Time at which blood insulin levels peaked post inhalation, range ([3]; range over all subjects and doses): between five and one hundred minutes
Required dose relative to intramuscular dose (rabbits): 25-50 times
Adverse symptoms from the respiratory tract [4]: No adverse symptoms from the respiratory tract were reported or signs observed
Adrenergic, hypoglycemic signs or symptoms ([4]; listed as Aerosolized insulin): lack of any signs or symptoms, including adrenergic symptoms
Tolerability of aerosolized insulin ([4]; listed as Aerosolized insulin): very well tolerated
Tolerability of aerosolized insulin ([4]; listed as aerosolized insulin): well-tolerated
Adrenergic, hypoglycemic signs or symptoms ([4]; listed as insulin aerosol): none of the subjects had adrenergic, hypoglycemic symptoms
Tolerability of aerosolized insulin ([4]; listed as insulin aerosol): well-tolerated
